Source: ChEMBL document CHEMBL3785084, “Rational modification of the lead molecule: Enhancement in the anticancer and dihydrofolate reductase inhibitory activity” (Bioorg Med Chem Lett, 2016)

Tested on: not listed separately
Assay: Cytotoxicity against human HL-60(TB) cells assessed as cell growth at 10^-5 M after 48 hrs by sulforhodamine B assay
Assay type: functional
Settings: HL-60, 48 h, read-out: Activity

SMILES | growth at 10 µM
CC1=NN(c2cccc(Cl)c2)C(=O)/C1=C\c1cn(CC(O)Cn2cc(/C=C3\C(=O)N(c4cccc(Cl)c4)N=C3C)c3ccccc32)c2ccccc12 | 109%

Tested on: K562
Assay: Cytotoxicity against human K562 cells assessed as cell growth at 10^-5 M after 48 hrs by sulforhodamine B assay
Assay type: functional
Settings: K562, 48 h, read-out: Activity

SMILES | growth at 10 µM
CC1=NN(c2cccc(Cl)c2)C(=O)/C1=C\c1cn(CC(O)Cn2cc(/C=C3\C(=O)N(c4cccc(Cl)c4)N=C3C)c3ccccc32)c2ccccc12 | 101%

Tested on: not listed separately
Assay: Cytotoxicity against human MOLT4 cells assessed as cell growth at 10^-5 M after 48 hrs by sulforhodamine B assay
Assay type: functional
Settings: MOLT-4, 48 h, read-out: Activity

SMILES | growth at 10 µM
CC1=NN(c2cccc(Cl)c2)C(=O)/C1=C\c1cn(CC(O)Cn2cc(/C=C3\C(=O)N(c4cccc(Cl)c4)N=C3C)c3ccccc32)c2ccccc12 | 104%

Tested on: SR
Assay: Cytotoxicity against human SR cells assessed as cell growth at 10^-5 M after 48 hrs by sulforhodamine B assay
Assay type: functional
Settings: read-out: Activity

SMILES | growth at 10 µM
CC1=NN(c2cccc(Cl)c2)C(=O)/C1=C\c1cn(CC(O)Cn2cc(/C=C3\C(=O)N(c4cccc(Cl)c4)N=C3C)c3ccccc32)c2ccccc12 | 96.3%

Tested on: A549
Assay: Cytotoxicity against human A549 cells assessed as cell growth at 10^-5 M after 48 hrs by sulforhodamine B assay
Assay type: functional
Settings: A549, 48 h, read-out: Activity

SMILES | growth at 10 µM
CC1=NN(c2cccc(Cl)c2)C(=O)/C1=C\c1cn(CC(O)Cn2cc(/C=C3\C(=O)N(c4cccc(Cl)c4)N=C3C)c3ccccc32)c2ccccc12 | 94.1%

Tested on: EKVX
Assay: Cytotoxicity against human EKVX cells assessed as cell growth at 10^-5 M after 48 hrs by sulforhodamine B assay
Assay type: functional
Settings: read-out: Activity

SMILES | growth at 10 µM
CC1=NN(c2cccc(Cl)c2)C(=O)/C1=C\c1cn(CC(O)Cn2cc(/C=C3\C(=O)N(c4cccc(Cl)c4)N=C3C)c3ccccc32)c2ccccc12 | 101%

Tested on: NCI-H226
Assay: Cytotoxicity against human NCI-H226 cells assessed as cell growth at 10^-5 M after 48 hrs by sulforhodamine B assay
Assay type: functional
Settings: NCI-H226, 48 h, read-out: Activity

SMILES | growth at 10 µM
CC1=NN(c2cccc(Cl)c2)C(=O)/C1=C\c1cn(CC(O)Cn2cc(/C=C3\C(=O)N(c4cccc(Cl)c4)N=C3C)c3ccccc32)c2ccccc12 | 109%

Tested on: NCI-H460
Assay: Cytotoxicity against human NCI-H460 cells assessed as cell growth at 10^-5 M after 48 hrs by sulforhodamine B assay
Assay type: functional
Settings: NCI-H460, 48 h, read-out: Activity

SMILES | growth at 10 µM
CC1=NN(c2cccc(Cl)c2)C(=O)/C1=C\c1cn(CC(O)Cn2cc(/C=C3\C(=O)N(c4cccc(Cl)c4)N=C3C)c3ccccc32)c2ccccc12 | 111%

Tested on: not listed separately
Assay: Cytotoxicity against human HCC2998 cells assessed as cell growth at 10^-5 M after 48 hrs by sulforhodamine B assay
Assay type: functional
Settings: HCC 2998, 48 h, read-out: Activity

SMILES | growth at 10 µM
CC1=NN(c2cccc(Cl)c2)C(=O)/C1=C\c1cn(CC(O)Cn2cc(/C=C3\C(=O)N(c4cccc(Cl)c4)N=C3C)c3ccccc32)c2ccccc12 | 102%

Tested on: not listed separately
Assay: Cytotoxicity against human HCT15 cells assessed as cell growth at 10^-5 M after 48 hrs by sulforhodamine B assay
Assay type: functional
Settings: HCT-15, 48 h, read-out: Activity

SMILES | growth at 10 µM
CC1=NN(c2cccc(Cl)c2)C(=O)/C1=C\c1cn(CC(O)Cn2cc(/C=C3\C(=O)N(c4cccc(Cl)c4)N=C3C)c3ccccc32)c2ccccc12 | 106%

Tested on: HT-29
Assay: Cytotoxicity against human HT-29 cells assessed as cell growth at 10^-5 M after 48 hrs by sulforhodamine B assay
Assay type: functional
Settings: HT-29, 48 h, read-out: Activity

SMILES | growth at 10 µM
CC1=NN(c2cccc(Cl)c2)C(=O)/C1=C\c1cn(CC(O)Cn2cc(/C=C3\C(=O)N(c4cccc(Cl)c4)N=C3C)c3ccccc32)c2ccccc12 | 112%

Tested on: not listed separately
Assay: Cytotoxicity against human SW620 cells assessed as cell growth at 10^-5 M after 48 hrs by sulforhodamine B assay
Assay type: functional
Settings: SW-620, 48 h, read-out: Activity

SMILES | growth at 10 µM
CC1=NN(c2cccc(Cl)c2)C(=O)/C1=C\c1cn(CC(O)Cn2cc(/C=C3\C(=O)N(c4cccc(Cl)c4)N=C3C)c3ccccc32)c2ccccc12 | 108%

Tested on: not listed separately
Assay: Cytotoxicity against human SF268 cells assessed as cell growth at 10^-5 M after 48 hrs by sulforhodamine B assay
Assay type: functional
Settings: SF-268, 48 h, read-out: Activity

SMILES | growth at 10 µM
CC1=NN(c2cccc(Cl)c2)C(=O)/C1=C\c1cn(CC(O)Cn2cc(/C=C3\C(=O)N(c4cccc(Cl)c4)N=C3C)c3ccccc32)c2ccccc12 | 104%

Tested on: not listed separately
Assay: Cytotoxicity against human SF295 cells assessed as cell growth at 10^-5 M after 48 hrs by sulforhodamine B assay
Assay type: functional
Settings: SF-295, 48 h, read-out: Activity

SMILES | growth at 10 µM
CC1=NN(c2cccc(Cl)c2)C(=O)/C1=C\c1cn(CC(O)Cn2cc(/C=C3\C(=O)N(c4cccc(Cl)c4)N=C3C)c3ccccc32)c2ccccc12 | 111%

Tested on: not listed separately
Assay: Cytotoxicity against human SF539 cells assessed as cell growth at 10^-5 M after 48 hrs by sulforhodamine B assay
Assay type: functional
Settings: SF-539, 48 h, read-out: Activity

SMILES | growth at 10 µM
CC1=NN(c2cccc(Cl)c2)C(=O)/C1=C\c1cn(CC(O)Cn2cc(/C=C3\C(=O)N(c4cccc(Cl)c4)N=C3C)c3ccccc32)c2ccccc12 | 94.2%

Tested on: not listed separately
Assay: Cytotoxicity against human SNB19 cells assessed as cell growth at 10^-5 M after 48 hrs by sulforhodamine B assay
Assay type: functional
Settings: SNB-19, 48 h, read-out: Activity

SMILES | growth at 10 µM
CC1=NN(c2cccc(Cl)c2)C(=O)/C1=C\c1cn(CC(O)Cn2cc(/C=C3\C(=O)N(c4cccc(Cl)c4)N=C3C)c3ccccc32)c2ccccc12 | 107%

Tested on: M14
Assay: Cytotoxicity against human M14 cells assessed as cell growth at 10^-5 M after 48 hrs by sulforhodamine B assay
Assay type: functional
Settings: M14, 48 h, read-out: Activity

SMILES | growth at 10 µM
CC1=NN(c2cccc(Cl)c2)C(=O)/C1=C\c1cn(CC(O)Cn2cc(/C=C3\C(=O)N(c4cccc(Cl)c4)N=C3C)c3ccccc32)c2ccccc12 | 101%

Tested on: MDA-MB-435
Assay: Cytotoxicity against human MDA-MB-435 cells assessed as cell growth at 10^-5 M after 48 hrs by sulforhodamine B assay
Assay type: functional
Settings: MDA-MB-435, 48 h, read-out: Activity

SMILES | growth at 10 µM
CC1=NN(c2cccc(Cl)c2)C(=O)/C1=C\c1cn(CC(O)Cn2cc(/C=C3\C(=O)N(c4cccc(Cl)c4)N=C3C)c3ccccc32)c2ccccc12 | 106%

Tested on: SK-MEL-2
Assay: Cytotoxicity against human SK-MEL-2 cells assessed as cell growth at 10^-5 M after 48 hrs by sulforhodamine B assay
Assay type: functional
Settings: SK-MEL-2, 48 h, read-out: Activity

SMILES | growth at 10 µM
CC1=NN(c2cccc(Cl)c2)C(=O)/C1=C\c1cn(CC(O)Cn2cc(/C=C3\C(=O)N(c4cccc(Cl)c4)N=C3C)c3ccccc32)c2ccccc12 | 115%

Tested on: SK-MEL-28
Assay: Cytotoxicity against human SK-MEL-28 cells assessed as cell growth at 10^-5 M after 48 hrs by sulforhodamine B assay
Assay type: functional
Settings: SK-MEL-28, 48 h, read-out: Activity

SMILES | growth at 10 µM
CC1=NN(c2cccc(Cl)c2)C(=O)/C1=C\c1cn(CC(O)Cn2cc(/C=C3\C(=O)N(c4cccc(Cl)c4)N=C3C)c3ccccc32)c2ccccc12 | 109%

Tested on: not listed separately
Assay: Cytotoxicity against human UACC257 cells assessed as cell growth at 10^-5 M after 48 hrs by sulforhodamine B assay
Assay type: functional
Settings: UACC-257, 48 h, read-out: Activity

SMILES | growth at 10 µM
CC1=NN(c2cccc(Cl)c2)C(=O)/C1=C\c1cn(CC(O)Cn2cc(/C=C3\C(=O)N(c4cccc(Cl)c4)N=C3C)c3ccccc32)c2ccccc12 | 116%

Tested on: not listed separately
Assay: Cytotoxicity against human IGROV1 cells assessed as cell growth at 10^-5 M after 48 hrs by sulforhodamine B assay
Assay type: functional
Settings: IGROV-1, 48 h, read-out: Activity

SMILES | growth at 10 µM
CC1=NN(c2cccc(Cl)c2)C(=O)/C1=C\c1cn(CC(O)Cn2cc(/C=C3\C(=O)N(c4cccc(Cl)c4)N=C3C)c3ccccc32)c2ccccc12 | 104%

Tested on: not listed separately
Assay: Cytotoxicity against human OVCAR5 cells assessed as cell growth at 10^-5 M after 48 hrs by sulforhodamine B assay
Assay type: functional
Settings: OVCAR-5, 48 h, read-out: Activity

SMILES | growth at 10 µM
CC1=NN(c2cccc(Cl)c2)C(=O)/C1=C\c1cn(CC(O)Cn2cc(/C=C3\C(=O)N(c4cccc(Cl)c4)N=C3C)c3ccccc32)c2ccccc12 | 102%

Tested on: not listed separately
Assay: Cytotoxicity against human NCI-ADR-RES cells assessed as cell growth at 10^-5 M after 48 hrs by sulforhodamine B assay
Assay type: functional
Settings: read-out: Activity

SMILES | growth at 10 µM
CC1=NN(c2cccc(Cl)c2)C(=O)/C1=C\c1cn(CC(O)Cn2cc(/C=C3\C(=O)N(c4cccc(Cl)c4)N=C3C)c3ccccc32)c2ccccc12 | 111%

Tested on: not listed separately
Assay: Cytotoxicity against human SKOV3 cells assessed as cell growth at 10^-5 M after 48 hrs by sulforhodamine B assay
Assay type: functional
Settings: SK-OV-3, 48 h, read-out: Activity

SMILES | growth at 10 µM
CC1=NN(c2cccc(Cl)c2)C(=O)/C1=C\c1cn(CC(O)Cn2cc(/C=C3\C(=O)N(c4cccc(Cl)c4)N=C3C)c3ccccc32)c2ccccc12 | 110%

Tested on: 786-0
Assay: Cytotoxicity against human 786-0 cells assessed as cell growth at 10^-5 M after 48 hrs by sulforhodamine B assay
Assay type: functional
Settings: 786-0, 48 h, read-out: Activity

SMILES | growth at 10 µM
CC1=NN(c2cccc(Cl)c2)C(=O)/C1=C\c1cn(CC(O)Cn2cc(/C=C3\C(=O)N(c4cccc(Cl)c4)N=C3C)c3ccccc32)c2ccccc12 | 110%

Tested on: A498
Assay: Cytotoxicity against human A498 cells assessed as cell growth at 10^-5 M after 48 hrs by sulforhodamine B assay
Assay type: functional
Settings: A498, 48 h, read-out: Activity

SMILES | growth at 10 µM
CC1=NN(c2cccc(Cl)c2)C(=O)/C1=C\c1cn(CC(O)Cn2cc(/C=C3\C(=O)N(c4cccc(Cl)c4)N=C3C)c3ccccc32)c2ccccc12 | 119%

Tested on: not listed separately
Assay: Cytotoxicity against human Caki1 cells assessed as cell growth at 10^-5 M after 48 hrs by sulforhodamine B assay
Assay type: functional
Settings: CAKI-1, 48 h, read-out: Activity

SMILES | growth at 10 µM
CC1=NN(c2cccc(Cl)c2)C(=O)/C1=C\c1cn(CC(O)Cn2cc(/C=C3\C(=O)N(c4cccc(Cl)c4)N=C3C)c3ccccc32)c2ccccc12 | 98.8%

Tested on: not listed separately
Assay: Cytotoxicity against human RXF393 cells assessed as cell growth at 10^-5 M after 48 hrs by sulforhodamine B assay
Assay type: functional
Settings: RXF 393, 48 h, read-out: Activity

SMILES | growth at 10 µM
CC1=NN(c2cccc(Cl)c2)C(=O)/C1=C\c1cn(CC(O)Cn2cc(/C=C3\C(=O)N(c4cccc(Cl)c4)N=C3C)c3ccccc32)c2ccccc12 | 116%

Tested on: not listed separately
Assay: Cytotoxicity against human UO31 cells assessed as cell growth at 10^-5 M after 48 hrs by sulforhodamine B assay
Assay type: functional
Settings: UO-31, 48 h, read-out: Activity

SMILES | growth at 10 µM
CC1=NN(c2cccc(Cl)c2)C(=O)/C1=C\c1cn(CC(O)Cn2cc(/C=C3\C(=O)N(c4cccc(Cl)c4)N=C3C)c3ccccc32)c2ccccc12 | 86.4%

Tested on: not listed separately
Assay: Cytotoxicity against human PC3 cells assessed as cell growth at 10^-5 M after 48 hrs by sulforhodamine B assay
Assay type: functional
Settings: PC-3, 48 h, read-out: Activity

SMILES | growth at 10 µM
CC1=NN(c2cccc(Cl)c2)C(=O)/C1=C\c1cn(CC(O)Cn2cc(/C=C3\C(=O)N(c4cccc(Cl)c4)N=C3C)c3ccccc32)c2ccccc12 | 104%

Tested on: not listed separately
Assay: Cytotoxicity against human DU145 cells assessed as cell growth at 10^-5 M after 48 hrs by sulforhodamine B assay
Assay type: functional
Settings: DU-145, 48 h, read-out: Activity

SMILES | growth at 10 µM
CC1=NN(c2cccc(Cl)c2)C(=O)/C1=C\c1cn(CC(O)Cn2cc(/C=C3\C(=O)N(c4cccc(Cl)c4)N=C3C)c3ccccc32)c2ccccc12 | 111%

Tested on: MDA-MB-231
Assay: Cytotoxicity against human MDA-MB-231 cells assessed as cell growth at 10^-5 M after 48 hrs by sulforhodamine B assay
Assay type: functional
Settings: MDA-MB-231, 48 h, read-out: Activity

SMILES | growth at 10 µM
CC1=NN(c2cccc(Cl)c2)C(=O)/C1=C\c1cn(CC(O)Cn2cc(/C=C3\C(=O)N(c4cccc(Cl)c4)N=C3C)c3ccccc32)c2ccccc12 | 97.2%

Tested on: not listed separately
Assay: Cytotoxicity against human BT549 cells assessed as cell growth at 10^-5 M after 48 hrs by sulforhodamine B assay
Assay type: functional
Settings: BT-549, 48 h, read-out: Activity

SMILES | growth at 10 µM
CC1=NN(c2cccc(Cl)c2)C(=O)/C1=C\c1cn(CC(O)Cn2cc(/C=C3\C(=O)N(c4cccc(Cl)c4)N=C3C)c3ccccc32)c2ccccc12 | 109%
